Like-named read-outs stand apart in the source and are kept apart here.
Columns and labels:
lupus nephritis [1] = assay: Pharmacodynamic dosing (eGFR-based dose reduction): CR/PR in patients with and without dose reduction; format: in vivo, human
Description: To determine the efficacy of the pharmacodynamic protocol wherein dosage is reduced or stopped according to the presence or absence of indicators of the decrease in eGFR experienced as a side effect, these three groups of patients were assessed after 24 weeks and 48 weeks of treatment with respect to whether treatment was altered according to the invention protocol.
In this study, CR was defined as a composite of UPCR ≤0.5 mg/mg; eGFR >60 mL/min/1.73 m^2 or within 20% of baseline, steroids at ≤10 mg/day and no administration of rescue medication. PR is defined as UPCR reduction of 50% from baseline and no use of rescue medication.

lupus nephritis [2] = assay: 48 week study of LN treatment: complete and partial remission; format: in vivo, human; conditions: for patients showing complete remission (CR) / patients showing partial remission (PR): 24 weeks
Description: The study was conducted over a period of 48 weeks and safety was evaluated at 24 weeks.
Subjects were screened prior to admission to the study by (a) determining that the urine protein creatinine ratio (UPCR) as >1.5 mg/mg as measured by first morning void, and (b) that the eGFR as measured by Chronic Kidney Disease Epidemiology Collaboration equation (CKD-EP1) of >45 ml/min/1.73 m^2. Subjects were assessed after 24 weeks and 48 weeks as well as a subsequent evaluation at 50 weeks.
PR is a composite end-point that includes safety and efficacy: UPCR reduction of 50% from baseline and no use of rescue medication

lupus nephritis [3] = conditions: cited from earlier work
[4] = 24 weeks, High Dose (39.5 mg BID)
[5] = 24 weeks, Low Dose (23.7 mg BID)
[6] = 48 weeks, High Dose (39.5 mg BID)
[7] = 48 weeks, Low Dose (23.7 mg BID)
[8] = patients with dose reductions (pharmacodynamically dosed), High Dose (39.5 mg BID)
[9] = patients with dose reductions (pharmacodynamically dosed), Low Dose (23.7 mg BID)
[10] = patients with no dose reductions, High Dose (39.5 mg BID)
[11] = patients with no dose reductions, Low Dose (23.7 mg BID)
[12] = high dosage 39.5 mg BID with MMF and corticosteroids
[13] = low dosage 23.7 mg BID with MMF and corticosteroids

C=C/C=C/C[C@@H](C)[C@@H](O)[C@H]1C(=O)N[C@@H](CC)C(=O)N(C)CC(=O)N(C)[C@@H](CC(C)C)C(=O)N[C@@H](C(C)C)C(=O)N(C)[C@@H](CC(C)C)C(=O)N[C@@H](C)C(=O)N[C@H](C)C(=O)N(C)[C@@H](CC(C)C)C(=O)N(C)[C@@H](CC(C)C)C(=O)N(C)[C@@H](C(C)C)C(=O)N1C [voclosporin]
Patients with Dose Reduction (lupus nephritis [1]; [4]): 47 (53.4) n(%) | Patients with no Dose Reduction (lupus nephritis [1]; [4]): 41 (46.6) n(%) | Patients with Dose Reduction (lupus nephritis [1]; [5]): 39 (43.8) n(%) | Patients with no Dose Reduction (lupus nephritis [1]; [5]): 50 (56.2) n(%) | Patients with Dose Reduction (lupus nephritis [1]; [6]): 53 (60.2) n(%) | Patients with no Dose Reduction (lupus nephritis [1]; [6]): 35 (39.8) n(%) | Patients with Dose Reduction (lupus nephritis [1]; [7]): 46 (51.7) n(%) | Patients with no Dose Reduction (lupus nephritis [1]; [7]): 43 (48.3) n(%) | Patients with CR at 24 weeks (lupus nephritis [1]; [8]): 13 (27.7) n(%) | Patients with CR at 48 weeks (lupus nephritis [1]; [8]): 24 (45.3) n(%) | Patients with PR at 24 weeks (lupus nephritis [1]; [8]): 34 (72.3) n(%) | Patients with PR at 48 weeks (lupus nephritis [1]; [8]): 41 (77.4) n(%) | Patients with CR at 24 weeks (lupus nephritis [1]; [9]): 14 (35.9) n(%) | Patients with CR at 48 weeks (lupus nephritis [1]; [9]): 24 (52.2) n(%) | Patients with PR at 24 weeks (lupus nephritis [1]; [9]): 28 (71.8) n(%) | Patients with PR at 48 weeks (lupus nephritis [1]; [9]): 35 (76.1) n(%) | Patients with CR at 24 weeks (lupus nephritis [1]; [10]): 11 (26.8) n(%) | Patients with CR at 48 weeks (lupus nephritis [1]; [10]): 11 (31.4) n(%) | Patients with PR at 24 weeks (lupus nephritis [1]; [10]): 24 (58.5) n(%) | Patients with PR at 48 weeks (lupus nephritis [1]; [10]): 22 (62.9) n(%) | Patients with CR at 24 weeks (lupus nephritis [1]; [11]): 15 (30.0) n(%) | Patients with CR at 48 weeks (lupus nephritis [1]; [11]): 20 (46.5) n(%) | Patients with PR at 24 weeks (lupus nephritis [1]; [11]): 34 (68.0) n(%) | Patients with PR at 48 weeks (lupus nephritis [1]; [11]): 26 (60.5) n(%) | patients showing complete remission (CR) (lupus nephritis [2]; [12]): 27% | patients showing partial remission (PR) (lupus nephritis [2]; [12]): 66% | patients showing complete remission (CR) (lupus nephritis [2]; [13]): 32.6% | patients showing partial remission (PR) (lupus nephritis [2]; [13]): 70% | subjects showing complete remission (CR) (lupus nephritis [2]; 48 weeks, low dosage 23.7 mg BID with MMF and corticosteroids): 49% | remission (lupus nephritis [3]; 23.7 mg or 39.5 mg twice daily with MMF and reducing corticosteroid, 24 weeks and 48 weeks): successful complete or partial remission in a large number of patients | remission (lupus nephritis [3]; 23.7 mg twice daily with MMF and reducing corticosteroid dose, 24 weeks): complete remission or partial remission in a large percentage of subjects

— patent publication US11622991B2, “Protocol for treatment of lupus nephritis” (Aurinia Pharmaceuticals Inc., priority 2017, dated 2023)
